Laboratory results: US10988456B2, “O-aminoheteroaryl alkynyl-containing compound, preparation method therefor, and use thereof” (SHANGHAI INSTITUTE OF MATERIA MEDICA, CHINESE ACADEMY OF …, priority 2017, dated 2021)

Assays:
[1] = test system: human lung cancer NCI-H1581 xenografts; experiment: Growth of subcutaneous xenografts of human lung cancer NCI-H1581 in nude mice; format: in vivo; conditions: for Relative tumor volume RTV (mean ± SD): NCI-H1581, 12.5 mg/kg orally once a day; for Weight (g, mean ± SD): NCI-H1581 tumor-bearing mice, 12.5 mg/kg orally once a day
Experimental: (§1) The diameter of the subcutaneously implanted tumor in nude mice was measured by a vernier caliper. […] In the compound HuFGFR267 50 mg/kg group, the compound was formulated with 0.5% methylcellulose (MC) to the required concentration before use. The formulation of compound was prepared once a week, and orally administered once a day for 14 days. The positive control drug AZD4547 was diluted to the required concentration with water for injection containing 1% Tween 80 before use. The formulation of AZD4547 was prepared once a week, and orally administered once a day for 14 days. In the solvent control group, an equal amount of water for injection was administrated.

[2] = test system: human gastric cancer SNU-16 xenografts; experiment: Growth of subcutaneous xenografts of human gastric cancer SNU-16 in nude mice (HuFGFR267 study); format: in vivo; conditions: for Relative tumor volume RTV (mean ± SD): SNU-16, 12.5 mg/kg orally once a day; for Weight (g, mean ± SD): SNU-16 tumor-bearing mice, 12.5 mg/kg orally once a day
Experimental: as §1, with “The formulation of compound was prepared once a week, and orally administered once a day for 14 days.” left out, “The formulation of AZD4547 was prepared once a week, and orally administered once a day for 14 days.” left out

FGFR1 = FGFR1 (Homo sapiens, UniProt P11362); experiment: Inhibition of receptor tyrosine kinase activity at molecular level (ELISA, Poly(Glu,Tyr)4:1 substrate phosphorylation); format: biochemical; conditions: 10 nM compound; average of two independent experiments
Experimental: (§2) Enzyme reaction substrate Poly(Glu, Tyr)4:1 was diluted with potassium-free PBS (10 mM sodium phosphate buffer, 150 mM NaCl, pH 7.2-7.4) to 20 μg/mL. […] The reaction was conducted under 37° C. for 12-16 hours. After the liquid was removed from the wells, the plate was washed three times with 200 μL/well of T-PBS (PBS containing 0.1% Tween-20), each for 5 minutes. The enzyme plate was dried in 37° C. dryer for 1-2 hours.
(§3) 50 μL ATP solution diluted with buffer (50 mM HEPES pH 7.4, 50 mM MgCl2, 0.5 mM MnCl2, 0.2 mM Na3VO4, 1 mM DTT) to a final concentration of 5 μM was added into each well. The compound was diluted with DMSO to a suitable concentration (1 μL/well) or the well contained the corresponding concentration of DMSO (negative control well) Then various kinase recombinant proteins diluted with 49 μL of reaction buffer was added to initiate the reaction. Each experiment required duplicate enzyme-free control well. The reaction was carried out for 1 hour on a 37° C. Shaker (100 rpm). The plate was washed three times with T-PBS. A dilution of the primary antibody PY99 was added (100 μL/well), and the reaction was conducted in a shaker at 37° C. for 0.5 hr. The plate was washed three times with T-PBS. A dilution of the horseradish peroxidase-labeled goat anti-mouse IgG secondary antibody was added (100 μL/well), and the reaction was conducted in a shaker at 37° C. for 0.5 hour. Plate was washed with T-PBS for three times. 2 mg/mL OPD coloration solution (diluted with 0.1 M citric acid-sodium citrate buffer containing 0.03% H2O2 (pH=5.4)) was added (100 μL/well), reacted for 1-10 minutes at 25° C. in dark. The reaction was quenched with 2M H2SO4 (50 μL/well), and read at 490 nm using a tunable microplate reader SPECTRA MAX 190.
(§4) The inhibition ratio of the sample was determined by the following formula: […]
(§5) The IC50 values were obtained via four-parameter regression analysis using the software supplied with the microplate reader.

KDR = KDR (Homo sapiens, UniProt P35968); experiment: as above; format: biochemical; conditions: 10 nM compound; average of two independent experiments
Experimental: as §2, §3, §4, §5

RET = RET (Homo sapiens, UniProt P07949); experiment: as above; format: biochemical; conditions: for 10 nM inhibition ratio RET: 10 nM compound, average of two independent experiments
Experimental: as §2, §3, §4, §5

Ret (V804M) = target: T1, Ret (V804M) (Homo sapiens, UniProt P07949, V804M); experiment: Inhibition of RET-related mutant enzyme activity (ELISA); format: biochemical; conditions: measured twice, Mean ± SD
T1 construct: purchased
Experimental: Enzyme reaction substrate Poly(Glu, Tyr)4:1 was diluted with potassium-free PBS (10 mM sodium phosphate buffer, 150 mM NaCl, pH 7.2-7.4) to 20 μg/mL. The enzyme label plate was coated with 125 μL/well. The reaction was conducted under 37° C. for 12-16 hours. After the liquid was removed from the wells, the plate was washed three times with 200 μL/well of T-PBS (PBS containing 0.1% Tween-20), each for 5 minutes. The enzyme plate was dried in 37° C. dryer for 1-2 hours.
50 μL ATP solution diluted with buffer (50 mM HEPES pH 7.4, 50 mM MgCl2, 0.5 mM MnCl2, 0.2 mM Na3VO4, 1 mM DTT) to a final concentration of 5 μM was added into each well. The compound was diluted with DMSO to a suitable concentration (1 μL/well) or the well contained the corresponding concentration of DMSO (negative control well) Then various kinase recombinant proteins diluted with 49 μL of reaction buffer was added to initiate the reaction. Each experiment required duplicate enzyme-free control well. The reaction was carried out for 1 hour on a 37° C. Shaker (100 rpm). […] The reaction was quenched with 2M H2SO4 (50 μL/well), and read at 490 nm using a tunable microplate reader SPECTRA MAX 190.
as §4
The IC50 values were obtained via four-parameter regression analysis using the software supplied with the microplate reader. […]

[3] = test system: RET signaling pathway in TT and BaF3/CCDC6-RET cells; experiment: Western blotting of RET signaling pathway activation in cells; format: cell-based; conditions: compounds 2 hours; P-RET, P-AKT, P-ErK
Experimental: Detecting the Effect of Compounds on the Activation of RET Signaling Pathway in TT and BaF3/CCDC6-RET Cells by Western Blotting
The cells were seeded into a 12-well plate (250,000/well). After incubation for 18-24 hours, the compounds were added to react for 2 hours, and then the cells were collected and firstly washed once with cold PBS (containing 1 mmol sodium vanadate); then 1×SDS gel loading buffer (50 mmol Tris-HCl (pH 6.8), 100 mmol DTT, 2% SDS, 10% glycerol, 1 mmol sodium vanadate, 0.1% bromophenol blue) was added to lyse cells. The cell lysate was heated in a boiling water bath for 10 minutes, and then centrifuged at 12,000 rpm for 10 minutes at 4° C.
The supernatant was taken for SDS-PAGE electrophoresis (Mini-PROTEAN 3 Cell, Bio-Rad, Hercules, Calif., USA). After electrophoresis, the proteins were transferred to a nitrocellulose membrane using a semi-dry electrotransfer system (Amersham Life Sciences, Arlington Heights, Ill., USA). The nitrocellulose membrane was placed in a blocking solution (5% skim milk powder diluted in TBS containing 1 mmol sodium vanadate) for 2 hours at room temperature, and then the membrane was placed and reacted with a primary antibody at 4° C. overnight. […] The membrane was placed in a secondary antibody solution and reacted for 1-2 hours at room temperature. After the membrane was washed three times as above, the membrane was stained using ECL (Picece, Rockford, Ill.) reagent was used for staining and then developed.

[4] = Pharmacokinetic experiment in rat (IV and PO, plasma LC-MS/MS)
Experimental: (§6) Ponatinib (AP24534) was administered intravenously (IV) and orally (PO) to SD rats. Blood samples were taken at different time points. LC-MS/MS was used to determine the concentration of compound in the plasma of rats after administration of the test compound, and the relevant pharmacokinetic parameters were calculated to examine oral bioavailability and pharmacokinetic properties of the compound in rats.
as §6, with “Compound HuFGFR267” for “Ponatinib (AP24534)”, “intravenously” for “intravenously (IV)”, “orally” for “orally (PO)”

[5] = test system: human gastric cancer SNU-16 xenografts; experiment: Growth of subcutaneous xenografts of human gastric cancer SNU-16 in nude mice (comparative compounds study); conditions: for Relative tumor volume RTV (mean ± SD): SNU-16, 30 mg/kg orally once a day; for Weight (g, mean ± SD): SNU-16 tumor-bearing mice, 30 mg/kg orally once a day

Sequence of RET (P07949 29-1114): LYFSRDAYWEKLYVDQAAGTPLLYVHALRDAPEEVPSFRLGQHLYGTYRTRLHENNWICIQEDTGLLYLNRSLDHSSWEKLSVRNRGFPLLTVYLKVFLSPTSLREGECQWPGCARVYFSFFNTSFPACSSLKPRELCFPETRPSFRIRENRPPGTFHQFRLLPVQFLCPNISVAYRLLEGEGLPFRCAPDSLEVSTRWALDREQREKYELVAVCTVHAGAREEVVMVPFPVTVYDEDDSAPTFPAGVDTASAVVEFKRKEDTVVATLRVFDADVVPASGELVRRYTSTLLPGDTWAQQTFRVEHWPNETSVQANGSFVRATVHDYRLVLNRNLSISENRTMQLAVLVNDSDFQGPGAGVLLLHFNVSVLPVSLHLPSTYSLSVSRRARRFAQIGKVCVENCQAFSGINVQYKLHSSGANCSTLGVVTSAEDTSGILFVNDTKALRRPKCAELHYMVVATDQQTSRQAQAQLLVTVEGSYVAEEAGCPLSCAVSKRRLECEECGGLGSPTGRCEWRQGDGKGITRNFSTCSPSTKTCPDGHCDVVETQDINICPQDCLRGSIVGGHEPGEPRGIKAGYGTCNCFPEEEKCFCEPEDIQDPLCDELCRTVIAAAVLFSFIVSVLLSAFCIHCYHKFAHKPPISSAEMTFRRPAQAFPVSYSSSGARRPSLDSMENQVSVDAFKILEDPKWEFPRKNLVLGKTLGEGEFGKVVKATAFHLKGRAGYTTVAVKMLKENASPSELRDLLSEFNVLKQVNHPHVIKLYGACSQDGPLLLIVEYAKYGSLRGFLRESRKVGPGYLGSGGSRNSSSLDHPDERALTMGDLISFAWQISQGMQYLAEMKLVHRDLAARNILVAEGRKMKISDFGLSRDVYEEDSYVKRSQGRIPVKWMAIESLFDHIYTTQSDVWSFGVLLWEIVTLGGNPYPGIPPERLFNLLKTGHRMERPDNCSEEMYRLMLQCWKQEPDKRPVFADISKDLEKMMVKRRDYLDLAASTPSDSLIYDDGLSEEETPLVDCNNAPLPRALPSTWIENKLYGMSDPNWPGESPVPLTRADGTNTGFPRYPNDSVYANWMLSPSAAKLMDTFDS
Sequence of KDR (P35968 20-1356): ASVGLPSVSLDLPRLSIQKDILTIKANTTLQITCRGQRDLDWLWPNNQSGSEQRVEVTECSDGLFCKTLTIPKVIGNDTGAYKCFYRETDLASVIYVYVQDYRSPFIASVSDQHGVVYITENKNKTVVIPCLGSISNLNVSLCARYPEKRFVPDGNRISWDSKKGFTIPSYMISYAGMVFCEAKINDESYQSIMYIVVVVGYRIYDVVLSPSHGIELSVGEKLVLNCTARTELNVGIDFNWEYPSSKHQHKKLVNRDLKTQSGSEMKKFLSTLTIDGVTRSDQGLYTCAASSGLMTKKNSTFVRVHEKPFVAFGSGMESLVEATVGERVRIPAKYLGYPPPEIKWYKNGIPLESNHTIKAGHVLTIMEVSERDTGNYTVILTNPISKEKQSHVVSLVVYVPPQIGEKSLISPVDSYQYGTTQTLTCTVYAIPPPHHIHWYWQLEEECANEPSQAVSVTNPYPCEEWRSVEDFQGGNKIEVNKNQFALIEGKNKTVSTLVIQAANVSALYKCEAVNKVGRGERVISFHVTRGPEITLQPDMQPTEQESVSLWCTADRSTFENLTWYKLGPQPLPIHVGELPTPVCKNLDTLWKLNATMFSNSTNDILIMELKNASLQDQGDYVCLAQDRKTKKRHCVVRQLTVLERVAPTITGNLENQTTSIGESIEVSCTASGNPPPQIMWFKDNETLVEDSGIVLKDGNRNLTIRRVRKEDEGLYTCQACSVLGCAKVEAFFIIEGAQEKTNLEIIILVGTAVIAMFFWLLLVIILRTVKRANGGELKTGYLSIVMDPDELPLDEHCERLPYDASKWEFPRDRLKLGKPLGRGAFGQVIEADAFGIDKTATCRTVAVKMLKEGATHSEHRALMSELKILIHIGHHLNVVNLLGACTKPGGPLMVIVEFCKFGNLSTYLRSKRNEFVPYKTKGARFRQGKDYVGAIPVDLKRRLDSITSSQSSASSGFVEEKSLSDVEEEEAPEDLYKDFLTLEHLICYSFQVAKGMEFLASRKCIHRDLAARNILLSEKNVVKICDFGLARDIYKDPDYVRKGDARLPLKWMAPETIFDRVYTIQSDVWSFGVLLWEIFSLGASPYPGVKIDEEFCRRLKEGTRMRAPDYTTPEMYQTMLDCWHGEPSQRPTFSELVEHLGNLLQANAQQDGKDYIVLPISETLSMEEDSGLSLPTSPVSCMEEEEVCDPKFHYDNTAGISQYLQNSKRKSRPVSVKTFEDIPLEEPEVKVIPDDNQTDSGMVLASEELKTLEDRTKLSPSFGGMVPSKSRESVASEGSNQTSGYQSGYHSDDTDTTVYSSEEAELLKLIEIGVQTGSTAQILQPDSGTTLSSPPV
Sequence of FGFR1 (P11362 22-822): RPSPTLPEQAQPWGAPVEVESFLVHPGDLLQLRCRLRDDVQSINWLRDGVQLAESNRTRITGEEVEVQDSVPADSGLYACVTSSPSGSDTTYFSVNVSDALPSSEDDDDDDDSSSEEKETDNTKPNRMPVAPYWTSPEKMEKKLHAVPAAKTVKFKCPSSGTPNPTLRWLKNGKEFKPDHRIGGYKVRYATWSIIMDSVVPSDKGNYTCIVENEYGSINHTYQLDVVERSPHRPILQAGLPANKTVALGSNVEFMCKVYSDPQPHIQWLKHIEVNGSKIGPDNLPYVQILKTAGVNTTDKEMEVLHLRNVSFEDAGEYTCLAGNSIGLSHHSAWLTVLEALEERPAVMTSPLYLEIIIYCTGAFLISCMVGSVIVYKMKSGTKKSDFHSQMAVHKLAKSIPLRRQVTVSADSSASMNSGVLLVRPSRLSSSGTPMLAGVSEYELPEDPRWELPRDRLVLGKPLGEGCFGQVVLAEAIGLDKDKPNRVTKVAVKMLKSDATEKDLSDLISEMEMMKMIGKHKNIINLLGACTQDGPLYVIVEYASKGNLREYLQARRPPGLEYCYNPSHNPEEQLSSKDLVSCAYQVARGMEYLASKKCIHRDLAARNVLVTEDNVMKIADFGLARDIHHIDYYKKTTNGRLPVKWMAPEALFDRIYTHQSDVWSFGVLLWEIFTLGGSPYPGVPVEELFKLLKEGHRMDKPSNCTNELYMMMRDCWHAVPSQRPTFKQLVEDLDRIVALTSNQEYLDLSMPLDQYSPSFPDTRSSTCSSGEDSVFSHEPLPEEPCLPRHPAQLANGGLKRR
T1 sequence (P07949 29-1114 V804M): as the sequence (P07949 29-1114) above, with V776M counted along it

## COc1cc(CCc2cc(NC(=O)c3ccc(N4C[C@@H](C)N[C@@H](C)C4)cc3)n[nH]2)cc(OC)c1 [AZD4547, reference compound]
[1]; NCI-H1581, 12.5 mg/kg orally once a day for 14 days, 14th day
  relative tumor proliferation rate T/C: 24.03%
[1]; d0
  Relative tumor volume RTV (mean ± SD): 1.00 ± 0.00
  Weight (g, mean ± SD): 18.2 ± 1.6 g
[1]; d3
  Relative tumor volume RTV (mean ± SD): 1.27 ± 0.44
  Weight (g, mean ± SD): 19.3 ± 1.6 g
[1]; d7
  Relative tumor volume RTV (mean ± SD): 3.43 ± 1.14
  Weight (g, mean ± SD): 20.1 ± 1.9 g
[1]; d10
  Relative tumor volume RTV (mean ± SD): 5.57 ± 3.62
  Weight (g, mean ± SD): 20.6 ± 2.2 g
[1]; d14
  Relative tumor volume RTV (mean ± SD): 13.81 ± 4.56
  Weight (g, mean ± SD): 21.3 ± 2.3 g
[1]; NCI-H1581, each group (HuFGFR267 50 mg/kg, AZD4547 12.5 mg/kg)
  animal deaths during the experiment: no mice died
[2]; SNU-16, 12.5 mg/kg orally once a day for 21 days, day 21
  relative tumor proliferation rate T/C: 18.46%
[2]; d0
  Relative tumor volume RTV (mean ± SD): 1.00 ± 0.00
  Weight (g, mean ± SD): 18.8 ± 1.2 g
[2]; d3
  Relative tumor volume RTV (mean ± SD): 0.92 ± 0.29
  Weight (g, mean ± SD): 19.5 ± 1.3 g
[2]; d7
  Relative tumor volume RTV (mean ± SD): 2.34 ± 1.23
  Weight (g, mean ± SD): 20.0 ± 1.5 g
[2]; d10
  Relative tumor volume RTV (mean ± SD): 2.96 ± 2.19
  Weight (g, mean ± SD): 20.7 ± 1.5 g
[2]; d14
  Relative tumor volume RTV (mean ± SD): 3.36 ± 3.14
  Weight (g, mean ± SD): 21.1 ± 1.6 g
[2]; d17
  Relative tumor volume RTV (mean ± SD): 3.77 ± 2.56
  Weight (g, mean ± SD): 20.9 ± 1.7 g
[2]; d21
  Relative tumor volume RTV (mean ± SD): 4.33 ± 3.29
  Weight (g, mean ± SD): 21.0 ± 1.7 g
[2]; SNU-16, each group (HuFGFR267 50 and 25 mg/kg, AZD4547 12.5 mg/kg)
  animal deaths during the experiment: no mice died

## CN1CCN(Cc2ccc(NC(=O)c3cccc(C#Cc4cccnc4N)c3)cc2C(F)(F)F)CC1 [Example 6]
FGFR1
  10 nM inhibition ratio FGFR1: 74.7
KDR
  10 nM inhibition ratio KDR: 35.2
RET
  10 nM inhibition ratio RET: 57.7
RET; measured twice, Mean ± SD
  IC50: 6 ± 0.4 nM
Ret (V804M)
  IC50: 17.9 ± 5.4 nM
[3]
  inhibition of RET phosphorylation and downstream signaling pathway (Western blot, FIG. 1): inhibited RET phosphorylation and the downstream signaling pathway

## Cc1ccc(C(=O)Nc2ccc(CN3CCN(C)CC3)c(C(F)(F)F)c2)cc1C#Cc1cnc2cccnn12 [Ponatinib]
FGFR1
  10 nM inhibition ratio FGFR1: 79.5
KDR
  10 nM inhibition ratio KDR: 85.3
RET
  10 nM inhibition ratio RET: 87.5
[3]
  inhibition of RET phosphorylation and downstream signaling pathway (Western blot, FIG. 1): inhibited RET phosphorylation and the downstream signaling pathway
[4]; SD rats, PO (10 mg/kg) vs IV (2 mg/kg)
  F: 24.4%
[4]; SD, rat, plasma, iv, 2 mg/kg
  AUC0-t: 1410 ng·h/mL
  Vd: 7.78 L/kg
  clearance: 22.2 mL/min/kg
  half-life: 4.24 h
[4]; SD, rat, plasma, po, 10 mg/kg
  AUC0-t: 1600 ng·h/mL
  Cmax: 241 ng/mL
  Tmax: 2.33 h
  half-life: 8.29 h
[5]; SNU-16, 30 mg/kg orally once a day for 21 days, day 21
  relative tumor proliferation rate T/C: 36.20%
[5]; d0
  Relative tumor volume RTV (mean ± SD): 1.00 ± 0.00
  Weight (g, mean ± SD): 23.6 ± 2.5 g
[5]; d3
  Relative tumor volume RTV (mean ± SD): 1.46 ± 0.30
  Weight (g, mean ± SD): 24.2 ± 2.9 g
[5]; d7
  Relative tumor volume RTV (mean ± SD): 1.56 ± 0.52
  Weight (g, mean ± SD): 23.5 ± 2.8 g
[5]; d10
  Relative tumor volume RTV (mean ± SD): 1.56 ± 0.22
  Weight (g, mean ± SD): 23.7 ± 2.9 g
[5]; d14
  Relative tumor volume RTV (mean ± SD): 2.00 ± 0.38
  Weight (g, mean ± SD): 24.5 ± 2.8 g
[5]; d17
  Relative tumor volume RTV (mean ± SD): 1.94 ± 0.47
  Weight (g, mean ± SD): 24.1 ± 2.6 g
[5]; d21
  Relative tumor volume RTV (mean ± SD): 2.10 ± 0.34
  Weight (g, mean ± SD): 24.6 ± 3.1 g
